Measurements published in US20230131966A1, “FUNGICIDAL AMIDES” (FMC Corporation, priority 2020, published 2023).

Experiments:
Format in all cases: in vivo
Phakopsora pachyrhizi = experiment: Test A: Asian soybean rust control on soybean seedlings; details: 250 ppm, soybean seedlings, 100 = 100% disease control, 0 = no control; for pest or weed control at 250 ppm: Phakopsora pachyrhizi, read-out: Test A disease control rating
[1] = system: Puccinia recondita f. sp. tritici; experiment: Test B: wheat leaf rust control on wheat seedlings; details: 250 ppm, wheat seedlings, 100 = 100% disease control, 0 = no control; for pest or weed control at 250 ppm: Puccinia recondita, read-out: Test B disease control rating
Zymoseptoria tritici = experiment: Test C: wheat leaf blotch control on wheat seedlings; details: 250 ppm, wheat seedlings, 100 = 100% disease control, 0 = no control; for pest or weed control at 250 ppm: Zymoseptoria tritici, read-out: Test C disease control rating
Plasmopara viticola = experiment: Test D: grape downy mildew control on grape seedlings; details: 250 ppm, 100 = 100% disease control, 0 = no control
Botrytis cinerea = experiment: Test E: tomato Botrytis control on tomato seedlings; details: 250 ppm, 100 = 100% disease control, 0 = no control; for pest or weed control at 250 ppm: Botrytis cinerea, read-out: Test E disease control rating
Phytophthora infestans = experiment: whole plant or invertebrate; details: tomato seedlings, 100 = 100% disease control, 0 = no control; for Test F disease control rating: 250 ppm; for pest or weed control at 250 ppm: Phytophthora infestans, in Solanum lycopersicum, read-out: Test F disease control rating, 250 ppm
[2] = system: Erysiphe graminis f. sp. tritici; experiment: Test G: wheat powdery mildew control on wheat seedlings; details: 250 ppm, 100 = 100% disease control, 0 = no control; for pest or weed control at 250 ppm: Blumeria graminis, read-out: Test G disease control rating

Row | SMILES | Test A disease control rating (Phakopsora pachyrhizi) [%] | Test B disease control rating [1] [%] | Test C disease control rating (Zymoseptoria tritici) [%] | Test D disease control rating (Plasmopara viticola) [%] | Test E disease control rating (Botrytis cinerea) [%] | Test F disease control rating (Phytophthora infestans) [%] | Test G disease control rating [2] [%] | pest or weed control at 250 ppm (Phakopsora pachyrhizi) [%] | pest or weed control at 250 ppm [1] [%] | pest or weed control at 250 ppm (Zymoseptoria tritici) [%] | pest or weed control at 250 ppm (Botrytis cinerea) [%] | pest or weed control at 250 ppm [2] [%] | pest or weed control at 250 ppm (Plasmopara viticola; Plasmopara viticola, read-out: Test D disease control rating) [%] | pest or weed control at 250 ppm (Phytophthora infestans) [%]
1 | COc1cccc(C(=O)NC(C)C(=O)OC(C)c2ccccc2Cc2ccccc2)c1O (stereo not drawn) [Compound 5] | 0 | 0 | 0 | 73 | 0 | 39 | 0 | – | – | – | – | – | – | –
2 | COc1cccc(C(=O)NC(C)C(=O)OC(C)c2ccccc2Cc2ccccc2)c1O (stereo not drawn) [Compound 6] | – | – | – | 28 | – | 0 | – | 0 | 0 | 0 | 0 | 0 | – | –
3 | COc1ccnc(C(=O)N[C@@H](C)C(=O)OC(C2CCCCC2)C2CCCCC2)c1O [Compound 45] | 100 | 0 | 39 | 43 | 0 | 9 | 0 | – | – | – | – | – | – | –
4 | COc1ccnc(C(=O)N[C@@H](C)C(=O)OC(C2CCCCC2)C2CCCCC2)c1OC(C)=O [Compound 46] | 100 | 68 | 68 | 22 | 0 | 0 | 91 | – | – | – | – | – | – | –
5 | COc1ccnc(C(=O)N[C@@H](C)C(=O)OC(C)c2ccc(-n3ccc(C(F)(F)F)n3)cc2Cc2ccccc2)c1O (stereo partly drawn) [Compound 93] | 99 | 74 | 72 | 0 | 0 | 0 | 0 | – | – | – | – | – | – | –
6 | COc1ccnc(C(=O)N[C@@H](C)C(=O)OC(C)c2ccc(-n3ccc(C(F)(F)F)n3)cc2Cc2ccccc2)c1OC(C)=O (stereo partly drawn) [Compound 94] | 38 | 92 | 82 | 10 | 0 | 0 | 0 | – | – | – | – | – | – | –
7 | COc1ccnc(C(=O)N[C@@H](C)C(=O)O[C@@H](C)c2ccc(C3CCCCC3)cc2)c1OC(C)=O [Compound 95, N-[[3-(acetyloxy)-4-methoxy-2-pyridinyl]carbonyl]-L-alanine (1S)-1-(4-cyclohexylphenyl)ethyl ester] | – | – | – | – | – | – | – | 100 | 100 | 100 | 0 | 0 | 1 | 0
8 | COc1ccnc(C(=O)NC(C)C(=O)OC(C)c2cccc3ccccc23)c1O (stereo not drawn) [Compound 113] | – | 0 | 42 | 94 | – | – | – | 90 | – | – | 0 | 0 | – | 0
9 | COc1ccnc(C(=O)NC(C)C(=O)OC(C)c2cccc3ccccc23)c1O (stereo not drawn) [Compound 114] | 100 | 100 | 77 | 63 | 0 | 0 | 0 | – | – | – | – | – | – | –
10 | COc1ccnc(C(=O)N[C@@H](C)C(=O)OC(C)c2ccc(C(C)C)cc2)c1OC(C)=O (stereo partly drawn) [Compound 117] | 100 | 100 | 94 | 71 | 0 | 0 | 0 | – | – | – | – | – | – | –
11 | COc1ccnc(C(=O)N[C@@H](C)C(=O)OC(C)c2ccc(C(C)C)cc2)c1O (stereo partly drawn) [Compound 118] | 100 | 99 | 86 | 85 | 0 | 0 | 0 | – | – | – | – | – | – | –
12 | COc1ccnc(C(=O)N[C@@H](C)C(=O)OC(c2ccc(C3CCCCC3)cc2)C(F)(F)F)c1OC(C)=O (stereo partly drawn) [Compound 119] | 100 | 99 | 88 | 27 | 0 | 0 | 48 | – | – | – | – | – | – | –
13 | COc1ccnc(C(=O)N[C@@H](C)C(=O)OC(c2ccc(C3CCCCC3)cc2)C(F)(F)F)c1O (stereo partly drawn) [Compound 120] | 99 | 94 | 95 | 24 | 0 | 0 | 0 | – | – | – | – | – | – | –
14 | COc1ccnc(C(=O)N[C@@H](C)C(=O)OC(C)c2ccc(C(C)(C)C)cc2)c1OC(C)=O (stereo partly drawn) [Compound 121] | 100 | 100 | 99 | 50 | 9 | 0 | 0 | – | – | – | – | – | – | –
15 | COc1ccnc(C(=O)N[C@@H](C)C(=O)OC(C)c2ccc(C(C)(C)C)cc2)c1O (stereo partly drawn) [Compound 123] | 100 | 100 | 84 | 57 | 0 | 24 | 0 | – | – | – | – | – | – | –
16 | COc1ccnc(C(=O)N[C@@H](C)C(=O)OC(C)c2ccc(C3CCCCC3)cc2)c1OC(=O)c1ccccc1 (stereo partly drawn) [Compound 136] | 60 | 90 | 0 | 4 | 0 | 0 | 0 | – | – | – | – | – | – | –
17 | COc1ccnc(C(=O)N[C@@H](C)C(=O)OC(C)c2cccc(OC3CCC(C)(C)CC3)c2)c1OC(C)=O (stereo partly drawn) [Compound 137] | 100 | 100 | 92 | 11 | 0 | 0 | 43 | – | – | – | – | – | – | –
18 | COc1ccnc(C(=O)N[C@@H](C)C(=O)OC(C)c2cccc(OC3CCC(C)(C)CC3)c2)c1O (stereo partly drawn) [Compound 138] | 95 | 74 | 63 | 18 | 0 | 0 | 0 | – | – | – | – | – | – | –
